From patent US6498179B1, “Oxazole derivatives, their production and use” (Takeda Chemical Industries, Ltd., priority 1996, dated 2002)

tested on: not given; experiment: not given; details: not given

Compared with Cc1nccn1-c1nc(-c2ccc(Cl)cc2)c(CCC(=O)NCCCl)o1, Cc1nccn1-c1nc(-c2ccc(Cl)cc2)c(CCCC(=O)NCCCl)o1 is lower in melting point: 155 to 156 °C for the first, 131 to 132 °C for the second.

First: Cc1nccn1-c1nc(-c2ccc(Cl)cc2)c(CCCCCn2ccnc2)o1.Cl.Cl.O (hydrate or solvate)
Second: Cc1nccn1-c1nc(-c2ccc(Cl)cc2)c(CCCCn2cncn2)o1 [Example 88, 1-[4-[4-(4-chlorophenyl)-2-(2-methyl-1-imidazolyl)-5-oxazolyl]butyl]1,2,4-triazole]
The melting point of the first is higher: 197 to 199 °C for the first, 74 to 75 °C for the second.

Compared with COC(=O)CCc1oc(Cl)nc1-c1ccc(Cl)cc1 [Example 1, methyl 2-chloro-4-(4-chlorophenyl)-5-oxazolepropionate], O=C(O)CCc1oc(Cl)nc1-c1ccc(Cl)cc1 [Example 2, 2-chloro-4-(4-chlorophenyl)-5-oxazolepropionic acid] is higher in melting point: 71 to 72 °C for the first, 169 to 170 °C for the second.

First: CCOc1nc(-c2ccc(Cl)cc2)c(CCC(=O)O)o1 [Example 3, 4-(4-chlorophenyl)-2-ethoxy-5-oxazolepropionic acid]
Second: CC(C)Oc1nc(-c2ccc(Cl)cc2)c(CCC(=O)O)o1 [Example 4, 4-(4-chlorophenyl)-2-isopropoxy-5-oxazolepropionic acid]
The melting point of the first is higher: 148 to 149 °C for the first, 116 to 117 °C for the second.

First: O=C(O)CCc1oc(Oc2ccccc2)nc1-c1ccc(Cl)cc1 [Example 5, 4-(4-chlorophenyl)-2-phenoxy-5-oxazolepropionic acid]
Second: O=C(O)CCc1oc(Sc2ccccc2)nc1-c1ccc(Cl)cc1 [Example 10, 4-(4-chlorophenyl)-2-phenylthio-5-oxazolepropionic acid]
The melting point of the first is lower: 136 to 137 °C for the first, 156 to 157 °C for the second.

Compared with CSc1nc(-c2ccc(Cl)cc2)c(CCC(=O)O)o1 [Example 6, 4-(4-chlorophenyl)-2-methylthio-5-oxazolepropionic acid], CC(C)Sc1nc(-c2ccc(Cl)cc2)c(CCC(=O)O)o1 [Example 7, 4-(4-chlorophenyl)-2-isopropylthio-5-oxazolepropionic acid] is lower in melting point: 183 to 184 °C for the first, 132 to 133 °C for the second.

First: O=C(O)CCc1oc(SCc2ccccn2)nc1-c1ccc(Cl)cc1 [Example 8, 4-(4-chlorophenyl)-2-(2-pyridylmethylthio)-5-oxazolepropionic acid]
Second: O=C(O)CCc1oc(SCc2cccnc2)nc1-c1ccc(Cl)cc1 [Example 9, 4-(4-chlorophenyl)-2-(3-pyridylmethylthio)-5-oxazolepropionic acid]
The melting point of the first is lower: 125 to 126 °C for the first, 129 to 130 °C for the second.

First: Cc1ccc(Sc2nc(-c3ccc(Cl)cc3)c(CCC(=O)O)o2)cc1 [Example 11, 4-(4-chlorophenyl)-2-(4-methylphenylthio)-5-oxazolepropionic acid]
Second: CNc1nc(-c2ccc(Cl)cc2)c(CCC(=O)O)o1 [Example 16, 4-(4-chlorophenyl)-2-methylamino-5-oxazolepropionic acid]
The melting point of the first is lower: 160 to 161 °C for the first, 217 to 218 °C for the second.

Compared with O=C(O)CCc1oc(N2CCOCC2)nc1-c1ccc(Cl)cc1 [Example 18, 4-(4-chlorophenyl)-2-morpholino-5-oxazolepropionic acid], O=C(O)CCc1oc(-n2ccnc2)nc1-c1ccc(Cl)cc1 [Example 24, 4-(4-chlorophenyl)-2-(1-imidazolyl)-5-oxazolepropionic acid] is higher in melting point: 180 to 181 °C for the first, 194 to 195 °C for the second.

First: CCCc1nccn1-c1nc(-c2ccc(Cl)cc2)c(CCC(=O)O)o1 [Example 30, 4-(4-chlorophenyl)-2-(2-propyl-1-imidazolyl)-5-oxazolepropionic acid]
Second: Cc1nccn1-c1nc(-c2ccc(Cl)cc2)c(CCC(N)=O)o1 [Example 41, 4-(4-chlorophenyl)-2-(2-methyl-1-imidazolyl)-5-oxazolepropionamide]
The melting point of the first is lower: 174 to 175 °C for the first, 215 to 216 °C for the second.

First: Cc1nccn1-c1nc(-c2ccc(Cl)cc2)c(CCC2=NCCO2)o1 [Example 46, 4-(4-chlorophenyl)-2-(2-methyl-1-imidazolyl)-5-[2-(2-oxazolin-2-yl)ethyl]oxazole]
Second: Cc1nccn1-c1nc(-c2ccc(Cl)cc2)c(CCCC2=NCCO2)o1 [Example 67, 4-(4-chlorophenyl)-2-(2-methyl-1-imidazolyl)-5-[3-(2-oxazolin-2-yl)propyl]oxazole]
The melting point of the first is higher: 119 to 120 °C for the first, 88 to 89 °C for the second.

Compared with CCc1nccn1-c1nc(-c2ccc(Cl)cc2)c(CCC2=NCCO2)o1 [Example 50, 4-(4-chlorophenyl)-2-(2-ethyl-1-imidazolyl)-5-[2-(2-oxazolin-2-yl)ethyl]oxazole], Cc1nccn1-c1nc(-c2ccc(Cl)cc2)c(CCC2=NCCS2)o1 [Example 60, 4-(4-chlorophenyl)-2-(2-methyl-1-imidazolyl)-5-[2-(2-thiazolin-2-yl)ethyl]oxazole] is higher in melting point: 53 to 54 °C for the first, 73 to 74 °C for the second.

First: CCOC(=O)CCc1oc(-n2ccnc2C)nc1-c1ccc(Cl)cc1 [Example 52, ethyl 4-(4-chlorophenyl)-2-(2-methyl-1-imidazolyl)-5-oxazolepropionate]
Second: CCOC(=O)CCCc1oc(-n2ccnc2C)nc1-c1ccc(Cl)cc1 [Example 64, ethyl 4-(4-chlorophenyl)-2-(2-methyl-1-imidazolyl)-5-oxazolebutyrate]
The melting point of the first is lower: 70 to 71 °C for the first, 72 to 73 °C for the second.

Compared with OCCCc1oc(-n2ccnc2)nc1-c1ccc(Cl)cc1 [Example 57, 4-(4-chlorophenyl)-2-(1-imidazolyl)-5-oxazolepropanol], Cc1nccn1-c1nc(-c2ccc(Cl)cc2)c(CCO)o1 [Example 78, 4-(4-chlorophenyl)-2-(2-methyl-1-imidazolyl)-5-oxazolethanol] is higher in melting point: 114 to 115 °C for the first, 159 to 160 °C for the second.

First: O=C(O)CCCc1oc(Cl)nc1-c1ccc(Cl)cc1 [Example 62, 2-chloro-4-(4-chlorophenyl)-5-oxazolebutyric acid]
Second: CCOC(=O)CCCCc1oc(-n2ccnc2C)nc1-c1ccc(Cl)cc1 [Example 81, ethyl 4-(4-chlorophenyl)-2-(2-methyl-1-imidazolyl)-5-oxazolepentanoate]
The melting point of the first is higher: 211 to 212 °C for the first, 93 to 94 °C for the second.

Compared with CON(C)C(=O)CCc1oc(-n2ccnc2C)nc1-c1ccc(Cl)cc1 [Example 68, N-methoxy-N-methyl-4-(4-chlorophenyl)-2-(2-methyl-1-imidazolyl)-5-oxazolepropionamide], Cc1nccn1-c1nc(-c2ccc(Cl)cc2)c(CCC=O)o1 [Example 69, 4-(4-chlorophenyl)-2-(2-methyl-1-imidazolyl)-5-oxazolepropionaldehyde] is lower in melting point: 116 to 117 °C for the first, 109 to 110 °C for the second.

First: Cc1nccn1-c1nc(-c2ccc(Cl)cc2)c(CCC2NCCS2)o1 (centres unmarked) [Example 70, 2-[2-[4-(4-chlorophenyl)-2-(2-methyl-1-imidazolyl)-5-oxazolyl]ethyl]thiazolidine]
Second: Cc1nccn1-c1nc(-c2ccc(Cl)cc2)c(CCCCCCO)o1 [Example 84, 4-(4-chlorophenyl)-2-(2-methyl-1-imidazolyl)-5-oxazolehexanol]
The melting point of the first is higher: 110 to 111 °C for the first, 70 to 71 °C for the second.

Compared with Cc1nccn1-c1nc(-c2ccc(Cl)cc2)c(CCCOS(C)(=O)=O)o1 [Example 71, 3-[4-(4-chlorophenyl)-2-(2-methyl-1-imidazolyl)-5-oxazolyl]propyl methanesulfonate], CCOC(=O)c1nccn1CCCCc1oc(-n2ccnc2C)nc1-c1ccc(Cl)cc1 [Example 92, ethyl 1-[4-[4-(4-chlorophenyl)-2-(2-methyl-1-imidazolyl)-5-oxazolyl]butyl]-2-imidazolecarboxylate] is higher in melting point: 97 to 98 °C for the first, 134 to 135 °C for the second.

tested on: KKA^y mice; experiment: Test for blood sugar depression in mice; type: in vivo; details: Mus musculus, 1 h; fasted male KKA^y mice, oral 30 mg/kg, 60 minutes after administration, compared with control group; read-out: Degree of Blood Glucose Depression (%) After 60 minutes
Protocol: After being fasted for 20 hours, 9- to 12-week-old, male KKA^y mice (five mice in each group) were orally given the test compound at a dose of 30 mg/kg/10 ml through a stomach tube. Control mice were orally given 5% gum arabic solution. Blood samples (70 μl) were obtained from orbital venous plexus through capillary tube before and 60 and 120 minutes after the administration of the test compound. Blood glucose was determined according to a glucose oxidase method using a commercial kit (Iatrochem, GIU(A), Iatron Labs. Inc.). Blood glucose level at 60 or 120 minutes of the test groups was compared with that of control group, and was shown as blood glucose depression (%) (Table 1).

First: O=C(O)CCc1oc(Sc2ccccn2)nc1-c1ccc(Cl)cc1 [Example 15, 4-(4-chlorophenyl)-2-(2-pyridylthio)-5-oxazolepropionic acid]
Second: O=C(O)CCc1oc(-n2cnc3ccccc32)nc1-c1ccc(Cl)cc1 [Example 34, 4-(4-chlorophenyl)-2-(1-benzimidazolyl)-5-oxazolepropionic acid]
The inhibition in vivo at 30 mg/kg of the first is lower: 22% for the first, 27% for the second.

Compared with Cc1nccn1-c1nc(-c2ccc(Cl)cc2)c(CCC(=O)O)o1 [Example 25, 4-(4-chlorophenyl)-2-(2-methyl-1-imidazolyl)-5-oxazolepropionic acid], CCc1nccn1-c1nc(-c2ccc(Cl)cc2)c(CCC(=O)O)o1 [Example 26, 4-(4-chlorophenyl)-2-(2-ethyl-1-imidazolyl)-5-oxazolepropionic acid] is lower in inhibition in vivo at 30 mg/kg: 38% for the first, 32% for the second.

Going from O=C(O)CCc1oc(-n2cccn2)nc1-c1ccc(Cl)cc1 [Example 28, 4-(4-chlorophenyl)-2-(1-pyrazolyl)-5-oxazolepropionic acid] to CSc1nccn1-c1nc(-c2ccc(Cl)cc2)c(CCC(=O)O)o1 [Example 32, 4-(4-chlorophenyl)-2-(2-methylthio-1-imidazolyl)-5-oxazolep ropionic acid], the inhibition in vivo at 30 mg/kg rises from 24% to 25%.

CC(C)c1nccn1-c1nc(-c2ccc(Cl)cc2)c(CCC(=O)O)o1 [Example 31, 4-(4-chlorophenyl)-2-(2-isopropyl-1-imidazolyl)-5-oxazolepropionic acid] gave an inhibition in vivo at 30 mg/kg of 27%.

same assay, conditions: Mus musculus, 2 h; fasted male KKA^y mice, oral 30 mg/kg, 120 minutes after administration, compared with control group; read-out: Degree of Blood Glucose Depression (%) After 120 minutes

First: O=C(O)CCc1oc(Sc2ccccn2)nc1-c1ccc(Cl)cc1 [Example 15, 4-(4-chlorophenyl)-2-(2-pyridylthio)-5-oxazolepropionic acid]
Second: O=C(O)CCc1oc(-n2cnc3ccccc32)nc1-c1ccc(Cl)cc1 [Example 34, 4-(4-chlorophenyl)-2-(1-benzimidazolyl)-5-oxazolepropionic acid]
The inhibition in vivo at 30 mg/kg of the first is higher: 26% for the first, 25% for the second.

Cc1nccn1-c1nc(-c2ccc(Cl)cc2)c(CCC(=O)O)o1 [Example 25, 4-(4-chlorophenyl)-2-(2-methyl-1-imidazolyl)-5-oxazolepropionic acid] and CCc1nccn1-c1nc(-c2ccc(Cl)cc2)c(CCC(=O)O)o1 [Example 26, 4-(4-chlorophenyl)-2-(2-ethyl-1-imidazolyl)-5-oxazolepropionic acid] are the same in inhibition in vivo at 30 mg/kg: 27% for the first, 27% for the second.

Compared with O=C(O)CCc1oc(-n2cccn2)nc1-c1ccc(Cl)cc1 [Example 28, 4-(4-chlorophenyl)-2-(1-pyrazolyl)-5-oxazolepropionic acid], CSc1nccn1-c1nc(-c2ccc(Cl)cc2)c(CCC(=O)O)o1 [Example 32, 4-(4-chlorophenyl)-2-(2-methylthio-1-imidazolyl)-5-oxazolep ropionic acid] is lower in inhibition in vivo at 30 mg/kg: 33% for the first, 28% for the second.

For CC(C)c1nccn1-c1nc(-c2ccc(Cl)cc2)c(CCC(=O)O)o1 [Example 31, 4-(4-chlorophenyl)-2-(2-isopropyl-1-imidazolyl)-5-oxazolepropionic acid], the inhibition in vivo at 30 mg/kg was 28%.
